Results: ChEMBL document CHEMBL3885861, “Open TG-GATES”

Species on record: Rattus norvegicus
Assay: Open TG-GATES - Regimen: Daily Repeat
Format: toxicity, organism-based, Sprague-Dawley
Parameters: regimen Daily Repeat, gender Male, age 6 weeks
Settings: in vivo, po, 100 mg/kg, route gavage, dose level Low; for APTT / Bas / Eos / Fbg / Hb / Ht / Lym / MCH / MCHC / MCV / Mono / Neu / PT / Plat / RBC / Ret / WBC: tissue Blood; for KIDNEY_L / KIDNEY_R / KIDNEY_TOTAL: tissue Kidney; for LIVER: tissue Liver; for A/G / ALP / ALT / AST / BUN / CRE / Ca / Cl / DBIL / GLC / IP / K / LDH / Na / PL / RALB / TBIL / TC / TG / TP / gamma-GTP: tissue Plasma

CCOC(=O)CCC(=O)O[C@H]1[C@H](O[C@@H]2[C@@H](C)[C@H](O[C@H]3C[C@@](C)(OC)[C@@H](O)[C@H](C)O3)[C@@H](C)C(=O)O[C@H](CC)[C@@](C)(O)[C@H](O)[C@@H](C)C(=O)[C@H](C)C[C@@]2(C)O)O[C@H](C)C[C@@H]1N(C)C [ERYTHROMYCIN ETHYLSUCCINATE]
TERMINAL_BW (72 h, time 3 day): 235.5 g
APTT (72 h, time 3 day): 21.4 s
Bas (72 h, time 3 day): 0%
Eos (72 h, time 3 day): 1%
Fbg (72 h, time 3 day): 324.6 mg/dL
Hb (72 h, time 3 day): 13.4 g/dL
Ht (72 h, time 3 day): 39.4%
Lym (72 h, time 3 day): 83.4%
MCH (72 h, time 3 day): 20.7 pg
MCHC (72 h, time 3 day): 33.9%
MCV (72 h, time 3 day): 61.1 fL
Mono (72 h, time 3 day): 3%
Neu (72 h, time 3 day): 11.6%
PT (72 h, time 3 day): 15.9 s
Plat (72 h, time 3 day): 120.2 x10_4/uL
RBC (72 h, time 3 day): 645.4 x10_4/ul
Ret (72 h, time 3 day): 4.9%
WBC (72 h, time 3 day): 101.8 x10_2/uL
KIDNEY_L (72 h, time 3 day): 1 g
KIDNEY_R (72 h, time 3 day): 1 g
KIDNEY_TOTAL (72 h, time 3 day): 2 g
LIVER (72 h, time 3 day): 10.5 g
A/G (72 h, time 3 day): 1.2
ALP (72 h, time 3 day): 1729.8 IU/L
ALT (72 h, time 3 day): 44.4 IU/L
AST (72 h, time 3 day): 77.2 IU/L
BUN (72 h, time 3 day): 18 mg/dL
CRE (72 h, time 3 day): 0.1 mg/dL
Ca (72 h, time 3 day): 10.3 mg/dL
Cl (72 h, time 3 day): 107.2 meq/L
DBIL (72 h, time 3 day): 0 mg/dL
GLC (72 h, time 3 day): 187.2 mg/dL
IP (72 h, time 3 day): 7.1 mg/dL
K (72 h, time 3 day): 4.4 meq/L
LDH (72 h, time 3 day): 179.8 IU/L
Na (72 h, time 3 day): 141.4 meq/L
PL (72 h, time 3 day): 130 mg/dL
RALB (72 h, time 3 day): 3 g/dL
TBIL (72 h, time 3 day): 0.024 mg/dL
TC (72 h, time 3 day): 69.2 mg/dL
TG (72 h, time 3 day): 72.2 mg/dL
TP (72 h, time 3 day): 5.5 g/dL
gamma-GTP (72 h, time 3 day): 1.2 IU/L
TERMINAL_BW ([…], time 7 day): 255.3 g
TERMINAL_BW ([…], time 14 day): 320.9 g
TERMINAL_BW ([…], time 28 day): 401.9 g
APTT ([…], time 7 day): 21.7 s
Bas ([…], time 7 day): 0%
Eos ([…], time 7 day): 0.8%
Fbg ([…], time 7 day): 311.8 mg/dL
Hb ([…], time 7 day): 13.6 g/dL
Ht ([…], time 7 day): 40%
Lym ([…], time 7 day): 84.6%
MCH ([…], time 7 day): 20.4 pg
MCHC ([…], time 7 day): 33.9%
MCV ([…], time 7 day): 60.1 fL
Mono ([…], time 7 day): 2.2%
Neu ([…], time 7 day): 11.4%
PT ([…], time 7 day): 16.8 s
Plat ([…], time 7 day): 107.9 x10_4/uL
RBC ([…], time 7 day): 667.2 x10_4/ul
Ret ([…], time 7 day): 5.3%
WBC ([…], time 7 day): 77.9 x10_2/uL
APTT ([…], time 14 day): 20.2 s
Bas ([…], time 14 day): 0%
Eos ([…], time 14 day): 1.2%
Fbg ([…], time 14 day): 338 mg/dL
Hb ([…], time 14 day): 13.8 g/dL
Ht ([…], time 14 day): 39.8%
Lym ([…], time 14 day): 82%
MCH ([…], time 14 day): 20.6 pg
MCHC ([…], time 14 day): 34.9%
MCV ([…], time 14 day): 59.1 fL
Mono ([…], time 14 day): 2.2%
Neu ([…], time 14 day): 13.8%
PT ([…], time 14 day): 16.3 s
Plat ([…], time 14 day): 113.3 x10_4/uL
RBC ([…], time 14 day): 673.2 x10_4/ul
Ret ([…], time 14 day): 4.7%
WBC ([…], time 14 day): 110.5 x10_2/uL
APTT ([…], time 28 day): 23.6 s
Bas ([…], time 28 day): 0%
Eos ([…], time 28 day): 1.2%
Fbg ([…], time 28 day): 339 mg/dL
Hb ([…], time 28 day): 15.1 g/dL
Ht ([…], time 28 day): 43.9%
Lym ([…], time 28 day): 86%
MCH ([…], time 28 day): 19.6 pg
MCHC ([…], time 28 day): 34.5%
MCV ([…], time 28 day): 56.8 fL
Mono ([…], time 28 day): 2%
Neu ([…], time 28 day): 9.4%
PT ([…], time 28 day): 16 s
Plat ([…], time 28 day): 107.2 x10_4/uL
RBC ([…], time 28 day): 772.2 x10_4/ul
Ret ([…], time 28 day): 2.7%
WBC ([…], time 28 day): 102.2 x10_2/uL
KIDNEY_L ([…], time 7 day): 1.1 g
KIDNEY_R ([…], time 7 day): 1.1 g
KIDNEY_TOTAL ([…], time 7 day): 2.2 g
KIDNEY_L ([…], time 14 day): 1.2 g
KIDNEY_R ([…], time 14 day): 1.3 g
KIDNEY_TOTAL ([…], time 14 day): 2.5 g
KIDNEY_L ([…], time 28 day): 1.4 g
KIDNEY_R ([…], time 28 day): 1.4 g
KIDNEY_TOTAL ([…], time 28 day): 2.9 g
LIVER ([…], time 7 day): 11.1 g
LIVER ([…], time 14 day): 13.3 g
LIVER ([…], time 28 day): 16.2 g
A/G ([…], time 7 day): 1.1
ALP ([…], time 7 day): 1592.6 IU/L
ALT ([…], time 7 day): 36.4 IU/L
AST ([…], time 7 day): 64.6 IU/L
BUN ([…], time 7 day): 18.4 mg/dL
CRE ([…], time 7 day): 0.2 mg/dL
Ca ([…], time 7 day): 10.5 mg/dL
Cl ([…], time 7 day): 108.2 meq/L
DBIL ([…], time 7 day): 0 mg/dL
GLC ([…], time 7 day): 194.2 mg/dL
IP ([…], time 7 day): 7 mg/dL
K ([…], time 7 day): 4.2 meq/L
LDH ([…], time 7 day): 129 IU/L
Na ([…], time 7 day): 141.2 meq/L
PL ([…], time 7 day): 135.8 mg/dL
RALB ([…], time 7 day): 2.9 g/dL
TBIL ([…], time 7 day): 0 mg/dL
TC ([…], time 7 day): 68.6 mg/dL
TG ([…], time 7 day): 111.4 mg/dL
TP ([…], time 7 day): 5.5 g/dL
gamma-GTP ([…], time 7 day): 1.6 IU/L
A/G ([…], time 14 day): 1.2
ALP ([…], time 14 day): 1442.8 IU/L
ALT ([…], time 14 day): 36.8 IU/L
AST ([…], time 14 day): 66 IU/L
BUN ([…], time 14 day): 20.2 mg/dL
CRE ([…], time 14 day): 0.2 mg/dL
Ca ([…], time 14 day): 10.7 mg/dL
Cl ([…], time 14 day): 107.2 meq/L
DBIL ([…], time 14 day): 0 mg/dL
GLC ([…], time 14 day): 196.8 mg/dL
IP ([…], time 14 day): 6.8 mg/dL
K ([…], time 14 day): 4.4 meq/L
LDH ([…], time 14 day): 150 IU/L
Na ([…], time 14 day): 142.2 meq/L
PL ([…], time 14 day): 150.2 mg/dL
RALB ([…], time 14 day): 3.1 g/dL
TBIL ([…], time 14 day): 0.005 mg/dL
TC ([…], time 14 day): 79 mg/dL
TG ([…], time 14 day): 102 mg/dL
TP ([…], time 14 day): 5.7 g/dL
gamma-GTP ([…], time 14 day): 2.2 IU/L
A/G ([…], time 28 day): 1.2
ALP ([…], time 28 day): 1003.2 IU/L
ALT ([…], time 28 day): 37.8 IU/L
AST ([…], time 28 day): 59.2 IU/L
BUN ([…], time 28 day): 19.2 mg/dL
CRE ([…], time 28 day): 0.2 mg/dL
Ca ([…], time 28 day): 10.3 mg/dL
Cl ([…], time 28 day): 106.4 meq/L
DBIL ([…], time 28 day): 0 mg/dL
GLC ([…], time 28 day): 194.4 mg/dL
IP ([…], time 28 day): 6.9 mg/dL
K ([…], time 28 day): 4.1 meq/L
LDH ([…], time 28 day): 114 IU/L
Na ([…], time 28 day): 141.8 meq/L
PL ([…], time 28 day): 152 mg/dL
RALB ([…], time 28 day): 3.1 g/dL
TBIL ([…], time 28 day): 0.006 mg/dL
TC ([…], time 28 day): 78.8 mg/dL
TG ([…], time 28 day): 127.4 mg/dL
TP ([…], time 28 day): 5.9 g/dL
gamma-GTP ([…], time 28 day): 2.2 IU/L
